Earlier results, collected in patent US20250275556A1, “N[…] METHOD FOR PRODUCING THE SAME” (Kalium Agri, Inc., priority 2024, published 2025).

Details: magnesium supplement in cattle, in optimal situations

For [O]=[Mg] [magnesium oxide], the digestible is given as 19%.
